Experimental data published in patent US20230077362A1 (CORTEVA AGRISCIENCE LLC, priority 2019, published 2023).
Read-outs that look alike come from different tables or passages of the source.

What was measured:
[1] = test system: Cabbage Looper (Trichoplusia ni) ("CL"), second instar larvae; experiment: Bioassay on cabbage looper (CL), 128-well diet tray assay; format: in vivo; conditions: for CL rating: C = not tested, D = no activity noticed
Experimental: (§1) Certain molecules disclosed in this document were tested against BAW and CL using procedures described in the following examples. In the reporting of the results, the “BAW & CL Rating Table” was used (See Table Section).
(§2) Trays were covered with a clear self-adhesive cover and held at 25° C., 14:10 light-dark cycle for five to seven days. Percent mortality was recorded for the larvae in each well; activity in the eight wells was then averaged. The results are indicated in the table entitled “Table ABC: Biological Results” (See Table Section).

[2] = test system: Beet Armyworm (Spodoptera exigua) ("BAW"), second instar larvae; experiment: Bioassay on beet armyworm (BAW), 128-well diet tray assay; format: in vivo; conditions: for pest or weed control at 50 µg/cm2: Spodoptera exigua; for BAW rating: C = not tested, D = no activity noticed
Experimental: as §1, §2

[3] = Trichoplusia ni, read-out: CL rating
[4] = Trichoplusia ni, read-out: CL (Biological Results, rating)
[5] = read-out: BAW (Biological Results, rating)

Cc1ccc(COCCC(F)(F)F)c(N2C(=O)CS/C2=N\C(=O)Nc2ccc(-c3ncn(-c4ccccc4)n3)cc2C)c1 [Compound J781, (Z)-1-(3-(5-Methyl-2-((3,3,3-trifluoropropoxy)methyl)phenyl)-4-oxothiazolidin-2-ylidene)-3-(2-methyl-4-(1-phenyl-1H-1,2,4-triazol-3-yl)phenyl)urea]
pest or weed control at 50 µg/cm2 [1, 3]: 50 to 100%
pest or weed control at 50 µg/cm2 ([2]; read-out: BAW rating): 50 to 100%

COCc1ccc(N(C)C)cc1N1C(=O)CS/C1=N\C(=O)Nc1ccc(-c2cn(-c3ccc(OC(F)(F)F)cc3)nn2)cc1 [Compound J496, (Z)-1-(3-(5-(Dimethylamino)-2-(methoxymethyl)phenyl)-4-oxothiazolidin-2-ylidene)-3-(4-(1-(4-(trifluoromethoxy)phenyl)-1H-1,2,3-triazol-4-yl)phenyl)urea]
pest or weed control at 50 µg/cm2 [1, 3]: 50 to 100%
pest or weed control at 50 µg/cm2 ([2]; read-out: BAW rating): 50 to 100%

COc1ccc(C(C)C)c(N2C(=O)CS/C2=N\C(=O)Nc2ccc(-c3ncn(-c4ccc(C(F)(F)F)cn4)n3)cc2C)c1 [Compound J292, (Z)-1-(3-(2-Isopropyl-5-methoxyphenyl)-4-oxothiazolidin-2-ylidene)-3-(2-methyl-4-(1-(5-(trifluoromethyl)pyridin-2-yl)-1H-1,2,4-triazol-3-yl)phenyl)urea]
pest or weed control at 50 µg/cm2 [1, 4]: 50 to 100%
pest or weed control at 50 µg/cm2 [2, 5]: 50 to 100%

Cc1ccc(C(F)(F)F)c(N2C(=O)CS/C2=N\C(=O)NC(C)Cc2ccc(-c3ncn(-c4ccc(OC(F)(F)F)cc4)n3)cc2)c1 (stereo not shown) [Compound H4]
pest or weed control at 50 µg/cm2 [1, 4]: 50 to 100%
pest or weed control at 50 µg/cm2 [2, 5]: 50 to 100%

O=C(/N=C1\SCC(=O)N1c1cc(F)ccc1COCC(F)(F)F)Nc1ccc(-n2cnc(-c3ccc(OC(F)(F)F)cc3)n2)cc1F [Compound J690, (Z)-1-(3-(5-Fluoro-2-((2,2,2-trifluoroethoxy)methyl)phenyl)-4-oxothiazolidin-2-ylidene)-3-(2-fluoro-4-(3-(4-(trifluoromethoxy)phenyl)-1H-1,2,4-triazol-1-yl)phenyl)urea]
pest or weed control at 50 µg/cm2 [1, 3]: 50 to 100%
pest or weed control at 50 µg/cm2 ([2]; read-out: BAW rating): 50 to 100%

CCOCc1ccc(C)cc1N1C(=O)CS/C1=N\C(=O)Nc1ccc(-c2cn(-c3ccc(OC(F)(F)F)cc3)nn2)cc1 [Compound J493, (Z)-1-(3-(2-(Ethoxymethyl)-5-methylphenyl)-4-oxothiazolidin-2-ylidene)-3-(4-(1-(4-(trifluoromethoxy)phenyl)-1H-1,2,3-triazol-4-yl)phenyl)urea]
pest or weed control at 50 µg/cm2 [1, 3]: 50 to 100%
pest or weed control at 50 µg/cm2 ([2]; read-out: BAW rating): 50 to 100%

Cc1ccc(COCC(F)(F)F)c(N2C(=O)CS/C2=N\C(=O)Nc2ccc(-n3cnc(-c4ccc(C(F)(F)F)cc4)n3)cc2F)c1 [Compound J698, (Z)-1-(2-fluoro-4-(3-(4-(trifluoromethyl)phenyl)-1H-1,2,4-triazol-1-yl)phenyl)-3-(3-(5-methyl-2-((2,2,2-trifluoroethoxy)methyl)phenyl)-4-oxothiazolidin-2-ylidene)urea]
pest or weed control at 50 µg/cm2 [1, 3]: 50 to 100%
pest or weed control at 50 µg/cm2 ([2]; read-out: BAW rating): 50 to 100%

Cc1ccc(COCC(F)(F)F)c(N2C(=O)CS/C2=N\C(=O)Nc2ccc(-c3ncn(-c4ccc(SC(F)(F)F)cc4)n3)cc2Cl)c1 [Compound J226, (Z)-1-(2-Chloro-4-(1-(4-((trifluoromethyl)thio)phenyl)-1H-1,2,4-triazol-3-yl)phenyl)-3-(3-(5-methyl-2-((2,2,2-trifluoroethoxy)methyl)phenyl)-4-oxothiazolidin-2-ylidene)urea]
pest or weed control at 50 µg/cm2 [1, 4]: 50 to 100%
pest or weed control at 50 µg/cm2 [2, 5]: 50 to 100%

Cc1ccc(C(C)C)c(N2C(=O)CS/C2=N\C(=O)Nc2ccc(-n3cnc(-c4ccc(C(F)(F)F)cc4)n3)cc2F)c1 [Compound J694, (Z)-1-(2-Fluoro-4-(3-(4-(trifluoromethyl)phenyl)-1H-1,2,4-triazol-1-yl)phenyl)-3-(3-(2-isopropyl-5-methylphenyl)-4-oxothiazolidin-2-ylidene)urea]
pest or weed control at 50 µg/cm2 [1, 3]: 50 to 100%
pest or weed control at 50 µg/cm2 ([2]; read-out: BAW rating): 50 to 100%

CCc1ccc(COCC(F)(F)F)c(N2C(=O)CS/C2=N\C(=O)Nc2ccc(-c3ncn(-c4ccc(OC(F)(F)F)cc4)n3)cc2C)c1 [Compound J641]
CL rating ([1]; Table ABC, species CL): A (50-100)
BAW rating ([2]; Table ABC, species BAW): A (50-100)

COc1ccc(C(C)C)c(N2C(=O)CS/C2=N\C(=O)Nc2ccc(-c3ncn(-c4ccc(OC(F)(F)F)cc4)n3)cc2C)c1 [Compound J54, (Z)-1-(3-(2-Isopropyl-5-methoxyphenyl)-4-oxothiazolidin-2-ylidene)-3-(2-methyl-4-(1-(4-(trifluoromethoxy)phenyl)-1H-1,2,4-triazol-3-yl)phenyl)urea]
pest or weed control at 50 µg/cm2 [1, 4]: 50 to 100%
pest or weed control at 50 µg/cm2 [2, 5]: 50 to 100%

COC(C)c1ccc(C)cc1N1C(=O)CS/C1=N\C(=O)Nc1ccc(-c2ncn(-c3ccc(OC(F)(F)F)cc3)n2)cc1C#N (stereo not shown) [Compound J228, (Z)-1-(2-Cyano-4-(1-(4-(trifluoromethoxy)phenyl)-1H-1,2,4-triazol-3-yl)phenyl)-3-(3-(2-(1-methoxyethyl)-5-methylphenyl)-4-oxothiazolidin-2-ylidene)urea]
pest or weed control at 50 µg/cm2 [1, 4]: 50 to 100%
pest or weed control at 50 µg/cm2 [2, 5]: 50 to 100%

Cc1ccc(COCC(Cl)(Cl)Cl)c(N2C(=O)CS/C2=N\C(=O)Nc2ccc(-c3ncn(-c4ccc(C(F)(F)F)cc4)n3)cc2F)c1 [Compound J550]
CL rating ([1]; Table ABC, species CL): A (50-100)
BAW rating ([2]; Table ABC, species BAW): A (50-100)

O=C(/N=C1\SCC(=O)N1c1cc(Cl)ccc1C(F)(F)F)Nc1ccc(-c2ncn(-c3ccc(OC(F)(F)F)cc3)n2)cc1Cl [Compound J42, (Z)-1-(3-(5-Chloro-2-(trifluoromethyl)phenyl)-4-oxothiazolidin-2-ylidene)-3-(2-chloro-4-(1-(4-(trifluoromethoxy)phenyl)-1H-1,2,4-triazol-3-yl)phenyl)urea]
pest or weed control at 50 µg/cm2 [1, 4]: 50 to 100%
pest or weed control at 50 µg/cm2 [2, 5]: 50 to 100%

COC(c1ccc(C)cc1N1C(=O)CS/C1=N\C(=O)Nc1ccc(-n2cnc(-c3ccc(OC(F)(F)F)cc3)c2)cc1Cl)C(F)(F)F (stereo not shown) [Compound J791, (Z)-1-(2-Chloro-4-(4-(4-(trifluoromethoxy)phenyl)-1H-imidazol-1-yl)phenyl)-3-(3-(5-methyl-2-(2,2,2-trifluoro-1-methoxyethyl)phenyl)-4-oxothiazolidin-2-ylidene)urea]
mortality at 50 µg/cm2 ([1]; Trichoplusia ni, Table ABC, species CL, 128-well diet tray assay, second instar larvae, read-out: CL rating (% control or mortality class)): 50 to 100%
BAW rating (% control or mortality class) ([2]; Table ABC, species BAW, 128-well diet tray assay, second instar larvae): A (50-100)

CCOCc1ccc(C)cc1N1C(=O)CS/C1=N\C(=O)Nc1ccc(-c2ncn(-c3ccc(S(F)(F)(F)(F)F)cc3)n2)cc1C(F)(F)F [Compound J627, (Z)-1-(3-(2-(Ethoxymethyl)-5-methylphenyl)-4-oxothiazolidin-2-ylidene)-3-(4-(1-(4-(pentafluoro-λ^6-sulfaneyl)phenyl)-1H-1,2,4-triazol-3-yl)-2-(trifluoromethyl)phenyl)urea]
pest or weed control at 50 µg/cm2 [1, 3]: 50 to 100%
pest or weed control at 50 µg/cm2 ([2]; read-out: BAW rating): 50 to 100%

Cc1ccc(COCc2c(F)c(F)c(F)c(F)c2F)c(N2C(=O)CS/C2=N\C(=O)Nc2ccc(-c3ncn(-c4ccc(OC(F)(F)F)cc4)n3)cc2F)c1 [Compound J622, (Z)-1-(2-Fluoro-4-(1-(4-(trifluoromethoxy)phenyl)-1H-1,2,4-triazol-3-yl)phenyl)-3-(3-(5-methyl-2-(((perfluorophenyl)methoxy)methyl)phenyl)-4-oxothiazolidin-2-ylidene)urea]
pest or weed control at 50 µg/cm2 [1, 3]: 50 to 100%
pest or weed control at 50 µg/cm2 ([2]; read-out: BAW rating): 50 to 100%

Cc1ccc(COCC(F)(F)F)c(N2C(=O)CS/C2=N\C(=O)Nc2ccc(-c3ncn(-c4ccccc4)n3)cc2C)c1 [Compound J780]
CL rating ([1]; Table ABC, species CL): A (50-100)
BAW rating ([2]; Table ABC, species BAW): A (50-100)

Cc1cc(-c2ncn(-c3ccc(OC(F)(F)F)cc3)n2)ccc1NC(=O)/N=C1\SCC(=O)N1c1cc(N(C)C)ccc1C(C)C [Compound J68, (Z)-1-(3-(5-(Dimethylamino)-2-isopropylphenyl)-4-oxothiazolidin-2-ylidene)-3-(2-methyl-4-(1-(4-(trifluoromethoxy)phenyl)-1H-1,2,4-triazol-3-yl)phenyl)urea]
pest or weed control at 50 µg/cm2 [1, 4]: 50 to 100%
pest or weed control at 50 µg/cm2 [2, 5]: 50 to 100%

COc1ccc(C(C)C)c(N2C(=O)CS/C2=N\C(=O)Nc2ccc(-c3ncn(-c4ccc(OC(F)(F)F)cn4)n3)cc2C(F)(F)F)c1 [Compound J277, (Z)-1-(3-(2-Isopropyl-5-methoxyphenyl)-4-oxothiazolidin-2-ylidene)-3-(4-(1-(5-(trifluoromethoxy)pyridin-2-yl)-1H-1,2,4-triazol-3-yl)-2-(trifluoromethyl)phenyl)urea]
pest or weed control at 50 µg/cm2 [1, 4]: 50 to 100%
pest or weed control at 50 µg/cm2 [2, 5]: 50 to 100%

Cc1cc(COCC(F)(F)F)c(N2C(=O)CS/C2=N\C(=O)Nc2ccc(-c3ncn(-c4ccc(S(F)(F)(F)(F)F)cc4)n3)cc2C(F)(F)F)cc1C [Compound J632, (Z)-1-(3-(4,5-Dimethyl-2-((2,2,2-trifluoroethoxy)methyl)phenyl)-4-oxothiazolidin-2-ylidene)-3-(4-(1-(4-(pentafluoro-λ^6-sulfaneyl)phenyl)-1H-1,2,4-triazol-3-yl)-2-(trifluoromethyl)phenyl)urea]
pest or weed control at 50 µg/cm2 [1, 3]: 50 to 100%
pest or weed control at 50 µg/cm2 ([2]; read-out: BAW rating): 50 to 100%

CCCc1ccc(N(C)C)cc1N1C(=O)CS/C1=N\C(=O)Nc1ccc(-c2ncn(-c3ccc(OC(F)(F)F)cn3)n2)cc1C#N [Compound J269, (Z)-1-(2-Cyano-4-(1-(5-(trifluoromethoxy)pyridin-2-yl)-1H-1,2,4-triazol-3-yl)phenyl)-3-(3-(5-(dimethylamino)-2-propylphenyl)-4-oxothiazolidin-2-ylidene)urea]
pest or weed control at 50 µg/cm2 [1, 4]: 50 to 100%
pest or weed control at 50 µg/cm2 [2, 5]: 50 to 100%

CCc1ccc(COCC(F)(F)F)c(N2C(=O)CS/C2=N\C(=O)Nc2ccc(-c3ncn(-c4ccc(OC(F)(F)F)cc4)n3)cc2F)c1 [Compound J634]
CL rating ([1]; Table ABC, species CL): A (50-100)
BAW rating ([2]; Table ABC, species BAW): A (50-100)
